Laboratory results reported in patent US20230255966A1, “A COMBINATION OF A CBP/P300 BROMODOMAIN INHIBITOR AND AN EGFR INHIBITOR FOR USE IN TREATING EGFR-MUTANT NSCLC” (TOLREMO THERAPEUTICS AG, priority 2020, published 2023).

Experiments:
[1] = system: HCC827 cells; assay: Label-free determination of cell proliferation (CELIGO); format: cell-based; conditions: 21 days (FIG. 9)
[2] = system: HCC827 cells; assay: Cell counting by nuclear fluorescent staining (Hoechst33342); format: cell-based
Procedure: Several plates were seeded, as for each time point of cell counting one plate was fixed and stained for analysis. […] Cell cultivation was continued until time of fixation and analysis for each plate. For extended time-points, medium and drugs were replenished twice weekly.
At the given time plates were washed 3 times with PBS and cells fixed with 80 μl 4% PFA for 10 min, RT. After 3 wash steps with PBS cells were stained with 10 μg/ml Hoechst33342 (Thermo Scientific H12492) in 100 μl PBS for 2 h, RT, dark. After 3× PBS washing-steps, Hoechst33342 signals were acquired on in an automated imaging mode using a Zeiss Apotome with motorized X/Y stage and a 5× objective. Image analysis and determination of Hoechst33342 spots (nuclei) was done using ImageJ. Number of nuclei was plotted as function of time using GraphPad Prism.

[3] = system: NCI-H1975 cells; assay: Gene expression analysis (qPCR of ALPP and HOPX); format: cell-based; conditions: NCI-H1975, 1 μM CBP/p300 inhibitor in presence of 20 nM osimertinib, 24 h
Procedure: (§1) Equal amount of cDNA was then subjected to qPCR analysis using the Kapa SYBR fast kit (KK4611) in a 384 well format in a Roche Light Cycler 480. Gene expression of genes was evaluated by subtraction of housekeeping gene CT-values (b-Actin) from CT of the genes of interest, and by calculating the ΔΔCT by subtracting the DMSO control value from sample of interest to finally calculate fold change differences of treated versus control treated sample.
(§2) Data is from 2 independent experiments with qPCRs in duplicate (mean±SEM) (FIG. 1C-D).

[4] = system: HCC827 cells; assay: Gene expression analysis (qPCR of ALPP and HOPX); format: cell-based; conditions: HCC827, 1 μM CBP/p300 inhibitor in presence of Gefitinib, 24 h
Procedure: as §1, §2

[5] = system: NCI-H1975 xenografts; assay: NCI-H1975 xenograft tumor growth; format: in vivo, NMRI-Nude mice
Procedure: Tumor volume was measured using a manual caliper two to three times a week. The tumor volume was calculated using the formula: lager tumor diameter x square of the smaller tumor diameter divided by 2. Based on a linear fit of the mean tumor volumes the slopes of the curves were compared by regression analysis (two-tailed).
(§3) The response was determined by comparing tumor volume change at time t to its baseline: % tumor volume change=ΔVolt=100%×((Vt−Vinitial)/Vinitial). The Best Response was the minimum value of ΔVolt for t≥10 d. For each time t, the average of ΔVolt from t=0 to t was also calculated. The BestAvgResponse is defined as the minimum value of this average for t≥10 d. This metric captures a combination of speed, strength and durability of response into a single value. […] Mice that were sacrificed because of an adverse event before they had completed 14 d on trial were removed from the data set.
as §3, with “ΔVolt for t≥6 d. For” for “ΔVolt for t≥10 d. For”

[6] = biological target: T1, ATAD2B (Homo sapiens, UniProt Q9ULI0); assay: BROMOscan BromoKdMAX; format: binding
T1 construct: T7 phage strains displaying bromodomains were grown in parallel; purchased DiscoverX; host or cells: T7 phage in E. coli host derived from BL21
T1 sequence (Q9ULI0 951-1066 limits assumed): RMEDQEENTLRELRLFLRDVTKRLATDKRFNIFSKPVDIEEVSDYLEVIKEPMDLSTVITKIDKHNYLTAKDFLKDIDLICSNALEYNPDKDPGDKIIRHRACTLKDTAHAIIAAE
Procedure: (§4) A BromoKdMAX was performed at DiscoverX.
(§5) The assay principle is the following: BROMOscan™ is a novel industry leading platform for identifying small molecule bromodomain inhibitors. Based on proven KINOMEscan™ technology, BRO-MOscan™ employs a proprietary ligand binding site-directed competition assay to quantitatively measure interactions between test compounds and bromodomains. This robust and reliable assay panel is suitable for high throughput screening and delivers quantitative ligand binding data to facilitate the identification and optimization of potent and selective small molecule bromodomain inhibitors.
(§6) The assay was conducted as follows: For the Bromodomain assays, T7 phage strains displaying bromodomains were grown in parallel in 24-well blocks in an E. coli host derived from the BL21 strain. E. coli were grown to log-phase and infected with T7 phage from a frozen stock (multiplicity of infection=0.4) and incubated with shaking at 32° C. until lysis (90-150 minutes). The lysates were centrifuged (5,000×g) and filtered (0.2 μm) to remove cell debris. […] The liganded beads were blocked with excess biotin and washed with blocking buffer (SeaBlock (Pierce), 1% BSA, 0.05% Tween 20, 1 mM DTT) to remove unbound ligand and to reduce non-specific phage binding. […] Test compounds were prepared as 1000× stocks in 100% DMSO. Kds were determined using an 11-point 3-fold compound dilution series with one DMSO control point. […] The compounds were then diluted directly into the assays such that the final concentration of DMSO was 0.09%. All reactions performed in polypropylene 384-well plates. Each was a final volume of 0.02 ml. […] The bromodomain concentration in the eluates was measured by qPCR.

[7] = biological target: T2, ATAD2A (Homo sapiens, UniProt Q6PL18); assay: BROMOscan BromoKdMAX; format: binding
T2 construct: T7 phage strains displaying bromodomains were grown in parallel; purchased DiscoverX; host or cells: T7 phage in E. coli host derived from BL21
T2 sequence (Q6PL18 980-1092 limits assumed): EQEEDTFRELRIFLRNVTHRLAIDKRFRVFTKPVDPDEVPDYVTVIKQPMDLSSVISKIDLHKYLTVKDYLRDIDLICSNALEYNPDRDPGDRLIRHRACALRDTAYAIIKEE
Procedure: as §4, §5, §6

[8] = biological target: T3, BAZ2A (Homo sapiens, UniProt Q9UIF9); assay: BROMOscan BromoKdMAX; format: binding
T3 construct: T7 phage strains displaying bromodomains were grown in parallel; purchased DiscoverX; host or cells: T7 phage in E. coli host derived from BL21
T3 sequence (Q9UIF9 1793-1897 limits assumed): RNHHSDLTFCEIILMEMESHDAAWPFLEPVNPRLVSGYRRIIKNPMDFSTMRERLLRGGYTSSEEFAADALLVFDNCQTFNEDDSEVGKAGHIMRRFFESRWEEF
Procedure: as §4, §5, §6

[9] = biological target: T4, SMARCA2 (Homo sapiens, UniProt P51531); assay: BROMOscan BromoKdMAX; format: binding
T4 construct: T7 phage strains displaying bromodomains were grown in parallel; purchased DiscoverX (BROMOscan / BromoKdMAX service); host or cells: T7 phage in E. coli host derived from BL21
T4 sequence (P51531 1378-1506 limits assumed): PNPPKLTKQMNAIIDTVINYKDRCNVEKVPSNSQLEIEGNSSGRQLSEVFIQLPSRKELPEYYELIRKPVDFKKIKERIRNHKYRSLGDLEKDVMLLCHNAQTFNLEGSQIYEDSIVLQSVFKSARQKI
Procedure: as §4, §5, §6

[10] = biological target: T5, BRPF3 (Homo sapiens, UniProt Q9ULD4); assay: BROMOscan BromoKdMAX; format: binding
T5 construct: T7 phage strains displaying bromodomains were grown in parallel; purchased DiscoverX; host or cells: T7 phage in E. coli host derived from BL21
T5 sequence (Q9ULD4 589-693 limits assumed): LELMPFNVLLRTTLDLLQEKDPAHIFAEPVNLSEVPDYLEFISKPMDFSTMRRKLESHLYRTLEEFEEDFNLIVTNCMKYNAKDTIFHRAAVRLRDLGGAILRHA
Procedure: as §4, §5, §6

[11] = biological target: T6, GCN5L2 (Homo sapiens, UniProt Q92830); assay: BROMOscan BromoKdMAX; format: binding
T6 construct: T7 phage strains displaying bromodomains were grown in parallel; purchased DiscoverX (BROMOscan / BromoKdMAX service); host or cells: T7 phage in E. coli host derived from BL21
T6 sequence (Q92830 728-832 limits assumed): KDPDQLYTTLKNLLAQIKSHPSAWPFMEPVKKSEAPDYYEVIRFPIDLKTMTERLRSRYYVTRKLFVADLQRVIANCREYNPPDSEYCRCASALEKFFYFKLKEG
Procedure: as §4, §5, §6

[12] = system: NCI-H1975 cells; assay: Label-free determination of cell proliferation (CELIGO); format: cell-based
[13] = system: HCC4006 cells; assay: as above; conditions: 21 days (FIG. 10)
Procedure: 2000 HCC4006 (ATCC; CRL2871) were seeded into 96 well plates (Greiner BioOne 655090) one day prior to drug treatment in RPMI medium containing 10% FCS and 2 mM L-Glutamine. The next day wells were imaged label-free using brightfield imaging on a CELIGO Image Cytometer to determine the initial cell number. Subsequently cells were treated with either DMSO, with single drugs (osimertinib and each of the CBP/p300 bromodomain inhibitors) or drug combinations of 100 nM osimertinib and one CBP/p300 bromodomain inhibitor with drug concentrations given below. Plates were regularly imaged over weeks using brightfield mode (CELIGO Imaging Cytometer) to track cell proliferation in each well over time. Growth medium and treatments were replenished twice weekly. […] Cell numbers were determined using CELIGO software's built-in “direct cell counting” analysis tool in the brightfield mode.

Compound: CO[C@H]1CC[C@H](n2c([C@@H]3CCCC(=O)N3c3ccc(F)c(F)c3)nc3cc(-c4c(C)noc4C)ccc32)CC1 [CCS1477]
- Development of drug resistance / re-growth ([1]; HCC827, combined with 100 nM osimertinib): prevent the development of drug resistance
- Effect on cell proliferation on their own ([1]; HCC827, single agent (1 μM Compound A, 0.2 μM Compound C, 0.2 μM CCS1477, 1 μM FT-6876, 0.2 μM GNE-781)): do not affect cell proliferation
- Effect on cell proliferation as single agent ([2]; absence of EGFR inhibitor (FIG. 3 left)): do not affect cell proliferation
- Anti-proliferative activity / re-growth in presence of Gefitinib ([2]; in presence of 300 nM Gefitinib (FIG. 3)): potentiate the effect of the EGFR inhibitor
- EGFR inhibitor induced gene expression (ALPP, HOPX) [3]: reverse EGFR inhibitor induced gene expression
- EGFR inhibitor induced gene expression (ALPP, HOPX) [4]: reverse EGFR inhibitor induced gene expression
- Response rate to therapy (best average response) ([5]; 2 mg/kg osimertinib in combination with 20 mg/kg CCS1477): increased response rate
- Tumor growth (slopes of mean tumor volume curves) versus osimertinib group ([5]; 2 mg/kg osimertinib in combination with 20 mg/kg CCS1477, daily, orally): significant difference
- Response to therapy (best average response) ([5]; 20 mg/kg CCS1477 alone): absence of response
- Tumor growth (slopes of mean tumor volume curves) versus vehicle ([5]; 20 mg/kg CCS1477 single agent, daily, orally): No significant difference
- Kd [6]: > 10 µM
- Kd [7]: > 10 µM
- Kd [8]: > 10 µM
- Kd [9]: > 10 µM
- Kd [10]: > 10 µM
- Kd [11]: > 10 µM
- Growth long-term ([12]; NCI-H1975, 50 nM osimertinib with 2.0, 0.5 or 0.125 μM co-treatment (FIG. 5)): delayed
- Effect on cell numbers on their own ([12]; NCI-H1975, 2 μM single agent (FIG. 5)): no/weak effect on cell numbers
- Development of drug resistance / re-growth ([13]; HCC4006, combined with 100 nM osimertinib): prevent the development of drug resistance
- Effect on cell proliferation on their own ([13]; HCC4006, single agent (1 μM Compound A, 0.2 μM Compound C, 0.2 μM CCS1477, 1 μM FT-6876, 0.2 μM GNE-781)): do not affect cell proliferation
